{
  "source": "patent US20100099756A1",
  "about": "“USES OF INCENSOLE, INCENSOLE ACETATE AND DERIVATIVES THEREOF” (YISSUM RESEARCH DEVELOPMENT COMPANY OF THE HEBREW …, priority 2006, published 2010)",
  "key": {"[1]": {"test_system": "IκBα degradation", "experiment": "IκBα degradation in TNFα-stimulated HeLa cells (Western blot)", "assay_type": "cell-based", "details": "HeLa cells pre-incubated 2 hrs, then TNFα 20 ng/ml for 20 minutes", "method": "HeLa cells were pre-incubated with IA (FIG. 1A) or IN (FIG. 1B) at the indicated concentrations for 2 hrs prior to 20 minutes exposure to TNFα (20 ng/ml). At least three more experiments were repeated with highest indicated dose, resulting similarly.\nIκBα Degradation. HeLa cells were pre-incubated with IA (50 μg/ml, dissolved in ethanol) for 2 hrs, and then stimulated for 20 minutes with TNFα (20 ng/ml, Emeryville, Calif., USA). After removing the slides from plates for immonostaining (see below), proteins were extracted from remaining cells in the plates. Proteins were extracted from cells in NP-40 lysis buffer. Total protein concentration was determined using the Bradford method. Lysates were then analyzed either by Western blotting (WB).\n(§1) Western Blot (WB). Following separation by SDS-PAGE, proteins were blotted to a polyvinylidene difluoride (PVDF) membrane (Millipore). The membrane was blocked in 5% (w/v) milk powder and then incubated in TBST containing the primary antibody and 2% (w/v) milk powder. All phospho-specific antibodies were purchased from Cell signaling Inc. αIκBa, αp65 and αCOX2 antibodies from Santa Cruz Inc. (California, USA). After binding of an appropriate secondary antibody coupled to horseradish peroxidase, proteins were visualized by enhanced chemiluminiscence according to the instructions of the manufacturer (Amersham Lifescience)."}, "[2]": {"test_system": "IKKα and IKKβ phosphorylation", "experiment": "TNFα-induced phosphorylation of the IKKs in HeLa cells", "assay_type": "cell-based", "details": "TNFα 20 ng/ml for 20 minutes, IA 140 μM", "method": "(A) IA inhibits IKK phosphorylation. HeLa cells were stimulated with TNFα (20 ng/ml for 20 minutes) in the absence or presence of IA (140 μM) as shown. Whole cell extracts were prepared and analyzed for the phosphoryation of IKKα and IKKβ by Western blotting (WB). (B) HeLa cells were stimulated with TNFα (20 ng/ml for 20 minutes) in the absence or presence of IA (140 μM). Cells were fixed and then stained with rabbit anti-p65 followed by anti-rabbit Rhodamine Red-labeled secondary Ab. and with DAPI for nuclei location (not shown). (B1) HeLa cells, no treatment; (B2) HeLa cells +IA; (B3) HeLa cells +TNF; (B4) HeLa cells +IA+TNF. The cells were examined under an Axioscope Zeiss microscope with a plan-Neofluor * 60 lens. Results of one of three independent experiments are shown.\nas §1, with “After binding of an appropriate secondary antibody coupled to horseradish peroxidase, proteins were visualized by enhanced chemiluminiscence according to the instructions of the manufacturer (Amersham Lifescience).” left out"}, "[3]": {"test_system": "closed head injury", "experiment": "Object recognition test after CHI", "assay_type": "in vivo, mice", "method": "This effect was sustained from 24 h to 21 days following injury as determined by the Mann-Whitney test (n=9-10 per group; * p<0.01; **p<0.001, as compared to vehicle treated, at the same day). (B) Mice were subjected to the object recognition test (Example 6) 3, 7, 14 and 21 days after CHI. The absolute time spent exploring each of the two objects was recorded and the % time calculated. At baseline (bl), when presented with two identical objects, exploration time of each object was about 50% in both groups. In the test (T) situation, after one of the objects was replaced by a novel one the % time spent exploring the new object was calculated.\nMemory function was assessed by ORT (Object Recognition Test) and the results are depicted in FIG. 5B. […] Both groups spent equal time at the two objects (˜50% of total exploration time) at the baseline measurements, at all times post CHI. […] At 21 days, it appears that the vehicle-treated mice regained their ability, and exploration time reached a similar level to that of the IA-treated mice."}, "[4]": {"target": "T1, rat-TRPV2 (Rattus norvegicus, UniProt Q9WUD2)", "T1 construct": "expressed in transfected cells; host or cells: HEK293 (transient, lipofectamine)", "T1 sequence (Q9WUD2 whole entry)": "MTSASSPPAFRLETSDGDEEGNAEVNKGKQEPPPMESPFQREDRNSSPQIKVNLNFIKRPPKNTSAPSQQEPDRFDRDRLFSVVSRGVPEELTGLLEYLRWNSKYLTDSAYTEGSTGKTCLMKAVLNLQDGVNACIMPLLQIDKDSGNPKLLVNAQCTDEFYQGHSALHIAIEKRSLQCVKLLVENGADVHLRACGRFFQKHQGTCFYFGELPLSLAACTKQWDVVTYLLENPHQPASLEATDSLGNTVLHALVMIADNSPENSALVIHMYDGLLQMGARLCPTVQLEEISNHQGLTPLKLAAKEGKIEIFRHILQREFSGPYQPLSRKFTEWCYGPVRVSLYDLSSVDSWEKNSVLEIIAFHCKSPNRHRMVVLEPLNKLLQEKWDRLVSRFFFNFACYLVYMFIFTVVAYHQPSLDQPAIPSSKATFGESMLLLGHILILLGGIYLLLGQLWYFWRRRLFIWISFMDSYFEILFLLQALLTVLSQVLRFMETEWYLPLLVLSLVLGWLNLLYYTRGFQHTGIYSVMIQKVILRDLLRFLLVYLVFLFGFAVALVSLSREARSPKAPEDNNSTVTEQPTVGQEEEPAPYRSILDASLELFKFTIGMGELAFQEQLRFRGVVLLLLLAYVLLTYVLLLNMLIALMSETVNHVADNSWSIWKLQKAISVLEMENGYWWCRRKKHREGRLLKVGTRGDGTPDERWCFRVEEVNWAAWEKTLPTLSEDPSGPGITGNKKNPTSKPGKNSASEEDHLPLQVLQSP", "experiment": "Calcium imaging of HEK293 cells transiently transfected with rat-TRPV2", "assay_type": "cell-based", "details": "IA 100 μM", "source_text": "All error bars indicate SEM; p values in all subfigures but c represent analysis with one-way ANOVA Bonferroni's post hoc.\nHEK293 cells were transiently transfected with a rat TRPV2 plasmid using lipofectamine reagent (Invitrogen, Carlsbad, Calif.) according to manufacturer's protocol. They were then maintained in Dulbecco's modified Eagle Medium/10% fetal calf serum supplemented with Penicillin, Streptomycin, and L-glutamine. Primary keratinocytes from TRPV3-deficient and TRPV3+/+ mouse pups (day 1-4) were harvested and cultured as described previously [Chung, M. K., Lee, H., Mizuno, A., Suzuki, M. & Caterina, M. J. TRPV3 and TRPV4 mediate warmth-evoked currents in primary mouse keratinocytes. J. Biol. Chem. 279, 21569-21575 (2004)].\nFor single cell calcium imaging, HEK293-rat TRPV2 and HEK293-mouse TRPV3-YFP expressing cells were plated on collagen-coated glass cover slips. Cells were loaded for 60 min with 3 μM Fura-2 AM."}, "[5]": {"test_system": "TRPV4", "experiment": "Whole-cell voltage-clamp, TRPV4(+) cells", "assay_type": "cell-based", "details": "IA 200 μM", "method": "TRPV3(+) response to IA is shown for reference. *, p<0.001. Error bars represent SEM, n=4-5.\nElectrophysiological recording. Currents were recorded using whole-cell voltage-clamp. Pipettes were pulled from microcapillary glass (A-M Systems). A coverslip containing cells was transferred to a 300 μL chamber that was constantly perfused (1-2 mL/min) with external solution. Voltage protocols were generated and data were digitized and recorded using Pulse (HEKA Elektronik) software in conjunction with an Axopatch 200A amplifier (Axon Instruments), and the data analyzed using an in-house Visual Basic (Microsoft) analysis program.\nThe pipette solution contained (in mM): 121.5 Kgluconate, 10 HEPES, 17 KCl, 9 NaCl, 1 MgCl2, 0.2 EGTA, 2 MgATP, and 0.5 NaATP, pH 7.2. The external solution contained (in mM): 120 NaCl, 5 KCl, 1 MgCl2, 2 CaCl2, 10 Glucose and 20 HEPES, pH 7.4 with NaOH. The measured charge (pC) was defined as the charge elicited between -85 and -45 mV by a ramping voltage stimulus (−85 mV to +35 mV, 0.54 mV/msec; holding potential -55 mV). Currents were sampled at 5 kHz. Experimental and control cells were alternated whenever possible. Control values were obtained from adjacent cells with no detectable YFP fluorescence, presumed to be non-TRPV3-expressing."}},
  "data": [
    {"compound": "CC(=O)OC1CC/C(C)=C/CC/C(C)=C/CC2(C(C)C)CCC1(C)O2", "note": "(stereo not shown) [IA, incensole acetate]", "values": [
      {"measurement": "IκBα degradation", "setting": "[1]", "result": "inhibited IκBα degradation in a dose dependent manner"},
      {"measurement": "IKKα/IKKβ phosphorylation", "setting": "[2]", "result": "inhibition of IKKα/IKKβ phosphorylation"},
      {"measurement": "time exploring the new object, persistence of the effect", "setting": "[3]; 7 and 14 days post injury", "result": "sustained for 7 and 14 days"},
      {"measurement": "time exploring the new object", "setting": "[3]; 3 days post injury, 50 mg/kg, P=0.01", "result": "significantly longer times exploring the new object"},
      {"measurement": "memory function of naïve, non-injured mice", "setting": "[3]; non-injured mice, data not shown", "result": "not affected"},
      {"measurement": "calcium influx in rat-TRPV2 transfected HEK293 cells", "setting": "[4]", "result": "did not induce calcium influx"},
      {"measurement": "current activation in TRPV4(+) cells", "setting": "[5]", "result": "does not activate currents"}
    ]}
  ]
}
